Experimental data: article PMC9104950, “Stereoselective Covalent Adduct Formation of Acyl Glucuronide Metabolite of Nonsteroidal Anti-Inflammatory Drugs with UDP-Glucuronosyltransferase” (International Journal of Molecular Sciences, 2022)

Assays:
[1] = tested on: proteins of Cyt (cytosolic fraction of liver homogenate); assay: Covalent adduct formation of NSAIDs-AG with proteins of cytosolic fraction (Cyt); assay type: binding, rat; settings: 180 μM, 1 mg/mL, 6 h
[2] = tested on: proteins of Mit (mitochondrial fraction of liver homogenate); assay: Covalent adduct formation of NSAIDs-AG with proteins of mitochondrial fraction (Mit); assay type: binding, rat; settings: 180 μM, 1 mg/mL, 6 h
[3] = tested on: proteins of Nuc (nuclear fraction of liver homogenate); assay: Covalent adduct formation of NSAIDs-AG with proteins of nuclear fraction (Nuc); assay type: binding, rat; settings: 180 μM, 1 mg/mL, 6 h
UGT1A1 = target: T1, UGT1A1 (Homo sapiens, UniProt P22309); assay: Covalent adduct formation of NSAIDs-AG with UGT1A1; assay type: binding; settings: R vs S diastereomer; 180 μM, UGT 3.4 μM, 6 h
T1 construct: purchased Corning, Inc
T1 sequence (P22309 26-533): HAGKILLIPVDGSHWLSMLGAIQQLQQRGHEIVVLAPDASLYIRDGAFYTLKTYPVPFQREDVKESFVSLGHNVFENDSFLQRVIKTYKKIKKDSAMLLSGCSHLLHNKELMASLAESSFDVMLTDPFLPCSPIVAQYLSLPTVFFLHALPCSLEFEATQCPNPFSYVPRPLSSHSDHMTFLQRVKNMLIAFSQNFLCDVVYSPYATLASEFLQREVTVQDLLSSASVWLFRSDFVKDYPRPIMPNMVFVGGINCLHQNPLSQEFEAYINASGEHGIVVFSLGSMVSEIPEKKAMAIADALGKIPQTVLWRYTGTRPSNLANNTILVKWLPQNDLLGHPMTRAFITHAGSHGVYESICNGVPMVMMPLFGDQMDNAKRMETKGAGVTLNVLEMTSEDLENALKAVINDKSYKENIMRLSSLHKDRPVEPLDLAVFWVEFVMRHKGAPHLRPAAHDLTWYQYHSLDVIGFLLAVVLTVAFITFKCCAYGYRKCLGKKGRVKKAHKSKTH
Experimental: The concentrations of UGT were set at 3.4 μM by the preliminary experiments on the linearity of covalent adduct formation. The covalent adduct formation of NSAIDs-AG with organelle proteins and UGT was determined according to previous reports on NSAIDs-AG with albumin with some modifications. After a deproteinization of the reaction mixture, methanol/diethyl ether (3:1) was added to the pellet. […] The concentrations of the parent NSAIDs were measured using liquid chromatography-tandem mass spectrometry (LC-MS/MS). Aliquots of 10 μL were injected into the LC-MS/MS system. The LC-MS/MS equipment consisted of an LC system (UltiMate 3000 series, Thermo Fisher Scientific, Inc.) and TSQ Endura Triple Quadrupole Mass Spectrometer with electrospray ionization (Thermo Fisher Scientific, Inc.). Finnigan Xcalibur software (Thermo Fisher Scientific, Inc.) was used for data recording and analysis. Analysis was further performed using a reversed-phase column (COSMOSIL 5C18-MSII, 2.0 mm × 150 mm, 5 μm; Nacalai Tesque, Inc.). The column temperature was set to 40 °C, and the autosampler was maintained at 10 °C. The mobile phase (A; 30% methanol in 8.5 mM ammonium formate and 0.0075% formic acid, and B; 90% methanol in 8.5 mM ammonium formate and 0.0075% formic acid) was pumped at a flow rate of 0.2 mL/min. The initial mobile phase composition was maintained at 30% mobile phase B for 1 min, changed linearly to 90% mobile phase B from 1 to 8 min, maintained for 1 min, returned to 30% mobile phase B from 9 to 10 min, and maintained for 1 min for chromatographic column equilibrium. The MS scan was operated in positive ionization mode for DIC, MEF, ZOM, KET, and NAP, or negative ionization mode, for FLU. […] The concentrations of NSAIDs were determined from a single-point calibration in every assay for NSAIDs after confirmation of linearity between area and concentrations of NSAIDs.

UGT2B4 = target: T2, UGT2B4 (Homo sapiens, UniProt P06133); assay: Covalent adduct formation of NSAIDs-AG with UGT2B4; assay type: binding; settings: 180 μM, UGT 3.4 μM, 6 h
T2 construct: purchased Corning, Inc
T2 sequence (P06133 24-528): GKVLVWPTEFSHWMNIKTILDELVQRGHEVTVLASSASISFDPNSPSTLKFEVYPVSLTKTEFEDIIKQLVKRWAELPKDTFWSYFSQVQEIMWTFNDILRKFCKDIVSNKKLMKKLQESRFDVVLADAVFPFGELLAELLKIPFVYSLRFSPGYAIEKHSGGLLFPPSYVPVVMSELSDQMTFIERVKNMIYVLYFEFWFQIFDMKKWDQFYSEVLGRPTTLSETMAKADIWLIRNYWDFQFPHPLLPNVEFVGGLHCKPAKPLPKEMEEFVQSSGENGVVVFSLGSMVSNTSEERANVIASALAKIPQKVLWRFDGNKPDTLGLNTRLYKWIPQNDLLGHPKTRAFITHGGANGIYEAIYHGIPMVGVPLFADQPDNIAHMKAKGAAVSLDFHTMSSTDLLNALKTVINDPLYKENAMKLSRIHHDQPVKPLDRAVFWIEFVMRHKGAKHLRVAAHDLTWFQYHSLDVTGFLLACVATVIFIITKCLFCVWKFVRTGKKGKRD
Experimental: (§1) The concentrations of UGT were set at 3.4 μM by the preliminary experiments on the linearity of covalent adduct formation. The covalent adduct formation of NSAIDs-AG with organelle proteins and UGT was determined according to previous reports on NSAIDs-AG with albumin with some modifications. After a deproteinization of the reaction mixture, methanol/diethyl ether (3:1) was added to the pellet. […] The concentrations of the parent NSAIDs were measured using liquid chromatography-tandem mass spectrometry (LC-MS/MS). Aliquots of 10 μL were injected into the LC-MS/MS system. The LC-MS/MS equipment consisted of an LC system (UltiMate 3000 series, Thermo Fisher Scientific, Inc.) and TSQ Endura Triple Quadrupole Mass Spectrometer with electrospray ionization (Thermo Fisher Scientific, Inc.). Finnigan Xcalibur software (Thermo Fisher Scientific, Inc.) was used for data recording and analysis. Analysis was further performed using a reversed-phase column (COSMOSIL 5C18-MSII, 2.0 mm × 150 mm, 5 μm; Nacalai Tesque, Inc.). The column temperature was set to 40 °C, and the autosampler was maintained at 10 °C. The mobile phase (A; 30% methanol in 8.5 mM ammonium formate and 0.0075% formic acid, and B; 90% methanol in 8.5 mM ammonium formate and 0.0075% formic acid) was pumped at a flow rate of 0.2 mL/min. The initial mobile phase composition was maintained at 30% mobile phase B for 1 min, changed linearly to 90% mobile phase B from 1 to 8 min, maintained for 1 min, returned to 30% mobile phase B from 9 to 10 min, and maintained for 1 min for chromatographic column equilibrium. The MS scan was operated in positive ionization mode for DIC, MEF, ZOM, KET, and NAP, or negative ionization mode, for FLU. The conditions for electrospray ionization were set at 3500 V spray voltage for positive ionization mode and 2500 V spray voltage for negative ionization mode at 400 °C capillary temperature, and 300 °C vaporizer temperature with 40 arbitrary units of nitrogen sheath gas and 10 arbitrary units of auxiliary gas. The MS scan was operated in the positive or negative ionization mode. The selected reaction monitoring (SRM) mode was used, with argon as the collision gas at 1.5 mTorr. The mass resolution was set at 0.7 full-width at half-height (unit resolution). SRM transitions (precursor and product ions) were mass to charge ratios of (m/z) 296 > 214 for DIC (positive ionization mode), 294 > 250 for DIC (negative ionization mode), 242 > 224 for MEF, 292 > 139 for ZOM, 243 > 198 for R- and S-FLU, 255 > 209 for R- and S-KET, 231 > 185 for R- and S-NAP, and 302 > 220 for DIC-d4. The collision energies were 15 V for DIC (negative ionization mode), ZOM, MEF, FLU, KET, and NAP; 35 V for DIC (positive ionization mode); and DIC-d4. The concentrations of NSAIDs were determined from a single-point calibration in every assay for NSAIDs after confirmation of linearity between area and concentrations of NSAIDs.

UGT2B7 = target: T3, UGT2B7 (Homo sapiens, UniProt P16662); assay: Covalent adduct formation of NSAIDs-AG with UGT2B7; assay type: binding; settings: 180 μM, UGT 3.4 μM, 6 h
T3 construct: purchased Corning, Inc
T3 sequence (P16662 24-529): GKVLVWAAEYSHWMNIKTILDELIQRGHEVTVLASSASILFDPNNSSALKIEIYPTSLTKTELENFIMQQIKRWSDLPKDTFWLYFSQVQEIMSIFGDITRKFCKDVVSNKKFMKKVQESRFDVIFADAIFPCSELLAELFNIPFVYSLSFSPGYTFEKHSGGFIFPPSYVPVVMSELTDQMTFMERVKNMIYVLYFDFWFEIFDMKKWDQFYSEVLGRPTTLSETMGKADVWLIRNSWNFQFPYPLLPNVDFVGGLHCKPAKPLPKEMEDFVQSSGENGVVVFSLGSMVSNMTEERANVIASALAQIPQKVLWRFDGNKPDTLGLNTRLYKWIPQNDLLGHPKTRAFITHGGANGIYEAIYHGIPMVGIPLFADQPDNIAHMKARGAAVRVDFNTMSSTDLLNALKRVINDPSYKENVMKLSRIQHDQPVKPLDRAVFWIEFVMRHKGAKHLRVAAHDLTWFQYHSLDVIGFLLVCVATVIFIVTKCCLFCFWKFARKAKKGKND
Experimental: as §1

[4] = parameters: method as in PMID 1642643; settings: plasma at physiological pH and temperature; cited from earlier work
[5] = parameters: method as in PMID 9571227; settings: cited from earlier work

CC(C(=O)OC1OC(C(=O)O)C(O)C(O)C1O)c1cccc(C(=O)c2ccccc2)c1 (stereo not shown) [R-KET-AG]
amount of covalent adducts with Cyt proteins compared with the other diastereomer (S-KET-AG) [1]: higher amounts of covalent adducts | amount of covalent adducts with Mit proteins compared with the other diastereomer (S-KET-AG) [2]: higher amounts of covalent adducts | amount of covalent adducts with Nuc proteins compared with the other diastereomer (S-KET-AG) [3]: higher amounts of covalent adducts | covalent adduct formation with UGT1A1 compared with the other diastereomer (UGT1A1): significantly more covalent adducts | amounts of covalent adducts with UGT2B (UGT2B4) relative to UGT1A isoforms (UGT2B4): relatively higher amounts of covalent adducts | covalent adduct formation with UGT2B4 compared with the other diastereomer (UGT2B4; R vs S diastereomer): significantly more covalent adducts | amounts of covalent adducts with UGT2B (UGT2B7) relative to UGT1A isoforms (UGT2B7): relatively higher amounts of covalent adducts | covalent adduct formation with UGT2B7 compared with the other diastereomer (UGT2B7; R vs S diastereomer): significantly more covalent adducts | hydrolysis half-life in plasma compared with S-KET-AG [4]: shorter | acyl migration rate compared with S-KET-AG [5]: higher acyl migration rate
